Like-named read-outs stand apart in the source and are kept apart here.
Legend:
[1] = 1:1 (v/v) dioxane-water; parent JF dyes; cited from earlier work
[2] = format: physicochemical
Protocol: Determination of logD7.4. The log of distribution coefficients at pH 7.4 was determined in octanol-phosphate-buffered saline (PBS) using the miniaturized shake flask setup described previously.^36, 47 Briefly, 150 mL each of octanol and PBS pH 7.4 were stirred vigorously for 12-16 h. The layers were allowed to stand for at least 24 h for phase separation. The separated layers were collected and served as PBS saturated with octanol (PBS*) and octanol saturated with PBS (octanol*). Stock solutions (1 mM or 5 mM) of ligands were prepared in DMSO and diluted in PBS* to obtain 1 μM or 10 μM (3-5 mL) of the standard (std). This standard was used to prepare appropriate dilutions using octanol*, in triplicate, in 2-mL glass vials. The leftover standard was used to determine the standard concentration (Cstd). The vials were vortexed for 1 min and shaken horizontally at 700 rpm for 2 h. The vials were then shaken upright at 150 rpm for 2 h to allow the phases to separate. The octanol* layer was pipetted out, and the PBS* layer was used for further analyses. The concentrations of ligands in the standard and PBS* (CPBS*) were determined via fluorescence measurements of 200 μL of PBS* or std in 96-well plates on the Cytation 5 Multimode Plate Reader (BioTek). For Si-rhodamine containing ligands, 2-20 μL of trifluoroacetic acid was added to each well of the 96-well plate prior to the fluorescence measurements. Reported values are averages of at least two measurements. The logD7.4 was obtained as described previously using equation 2:
[formula] • where Cstd is the standard concentration in PBS, CPBS* is the concentration in PBS after partitioning, r is the dilution factor of the standard solution, VPBS* is the volume of PBS used in the partitioning, and Voctanol* is the volume of octanol used in the partitioning.

[3] = 1-Photon spectroscopy and quantum yield of HaloTag® ligands; format: physicochemical; conditions: free ligand, 10 mM HEPES pH 7.3
Protocol: 1-Photon spectroscopy of HaloTag® ligands and HaloTag® conjugates. […] All measurements were taken at ambient temperature (22 ±2° C.). Absorption spectra were recorded on a Cary Model 100 spectrometer (Agilent) using 1-cm path length 1.0-mL quartz microcuvettes from Starna Cells. Fluorescence spectra were recorded on a Cary Eclipse fluorometer (Varian) using 1-cm path length 3.5-mL quartz cuvettes (Starna Cells). As before,^13, 23, 32, 45 HaloTag® protein was used as a 100 μM solution in 1×TBS. HaloTag® ligands 12-15 (5 μM) were dissolved in 10 mM HEPES, pH 7.3, containing 0.1 mg/mL CHAPS. An aliquot of HaloTag® protein (1.5 equiv) was added, and the resulting mixture was incubated until a consistent absorbance signal was observed (60-120 min). To measure the fold-increase of absorbance upon HaloTag® binding, a “no HaloTag®” control experiment was performed where an equivalent volume of TBS blank was added in place of the protein. Reported values for extinction coefficient (ε) are averages of at least two measurements.
Quantum yield determination. All reported absolute fluorescence quantum yield values (Φf) were measured in the laboratory under identical conditions using a Quantaurus-QY spectrometer (model C11374, Hamamatsu). This instrument uses an integrating sphere to determine photons absorbed and emitted by a sample. Measurements were performed using dilute samples (absorbance<0.1), and self-absorption corrections were performed using the instrument software.^46 Reported values are averages of at least two measurements.

[4] = Determination of lactone-zwitterion equilibrium constant (KL-Z); format: physicochemical; conditions: 1:1 (v/v) dioxane:water
Protocol: Determination of KL-Z. The lactone-zwitterion equilibrium constant (KL-Z) was calculated as described previously^13, 23, 32, 45 using equation 1: […]
where εdw is the extinction coefficient of the dyes in a 1:1 (v/v) dioxane:water solvent mixture containing 0.01% (v/v) triethylamine; this dioxane water mixture was chosen to give a large range of KL-Z values,^23 and the triethylamine additive ensures the rhodamines are in the net neutral form. The εmax is the maximal extinction coefficient, measured in 0.1% (v/v) trifluoroacetic acid in 2,2,2-trifluoroethanol (TFE).

[5] = test system: HaloTag®-histone H2B fusion protein; format: cell-based; conditions: 200 nM, live U2OS cells expressing HaloTag®-H2B, 0-4 h
Protocol: Dye loading kinetics. Live U2OS.H2B.HaloTag® stable cells were labeled over a time course of 0-4 h with 200 nM of biotin-JF549-HaloTag® ligand (12), biotin-JF608-HaloTag® ligand (13), biotin-JF646-HaloTag® ligand (14), or biotin-JF635-HaloTag® ligand (15) at 37° C. Cells were then washed 3× with dye-free media, fixed with 4% paraformaldehyde in 0.1 M phosphate buffer, pH 7.4 for 15 min at 37° C. Confocal imaging was performed on a Leica SP8 with an HC PL APO CS2 20×/0.75 immersion objective using the tunable white light laser (WLL) to excite dyes at their λabs in constant power mode. Fluorescence was quantified as the average integrated density of background corrected nuclear signals from confocal image stack projections analyzed in FIJI; n=100 nuclear signals per compound.

[6] = target: T1, msGFP-HaloTag® fusion localized to the mitochondrial outer membrane (Rhodococcus rhodochrous, UniProt P0A3G2, A155T/A167V/A172T/A224E/C128F/C176G/D78G/E160K/E257K/H272N/K175M/K195N/L47V/L88M/N227D/S58T/T264A/Y273L/Y87F); test: HEK293T labeling and fluorescence microscopy; format: cell-based; conditions: live HEK293T cells, nanomolar concentration (100 nM, 1 h)
T1 construct: expressed in transfected cells; host or cells: HEK293T, calcium phosphate transfection
Text: Plasmid construction. HaloTag®, amplified from the pHTC HaloTag® CMV-neo Vector (Promega; G7711) and monomeric-superfolder green fluorescent protein (msGFP; lab stock), was fused to the mitochondrial targeting signal from OMP25,^28 interspacing flexible GS(GSS)4 linkers between each domain by PCR Splicing by Overlap Extension (SOE). This construct was subcloned into hSynapsin promoter bearing a copy of FUGW.^29 FUGW was a gift from David Baltimore (Addgene plasmid #14883; RRID: Addgene_14883).^48 This construct was designated as pF(UG) hSyn HaloTag®-TEV-4×GS-msGFP-mito.
HEK293T cell culture. HEK293T cells (ATCC) were passaged before 80% confluency by trypsinization (Corning; 25-053-CI) and trituration. The cell suspension was then plated on glass coverslips (Warner instruments; 64-0734, CS-18R17) coated with poly-D-lysine (Thermofisher; ICN10269491) and cultured in Dulbecco's Modified Eagle Medium (DMEM; ThermoFisher; 11965-118) supplemented with 10% v/v fetal bovine serum (FBS, Atlanta Biological) and penicillin/streptomycin (pen/strep; ThermoFisher; MT-30-001-CI) at 37° C. in a humidified 5% v/v CO2 environment following ATCC guidelines. These HEK293T cells were tested for mycoplasma contamination using the Universal Mycoplasma Detection Kit (ATCC; 30-1012K) and validated using Short Tandem Repeat profiling by ATCC (ATCC; 135-XV) within the previous year.
HEK293T labeling and fluorescence microscopy. […] For pulse-chase experiments, HEK293T cells were incubated with biotin-HaloTag® ligand (6; #G8281, Promega) at either 100 nM or 10 μM for 1 hour at 37° C. and chased with 100 nM of JANELIA FLUOR® (JF)549-HaloTag® ligand (2HTL). […] For imaging, the coverslips containing HEK293T cells were fixed with 4% paraformaldehyde in PBS at 37° C. for 10 min, washed with PBS (3×), and mounted on glass slides with ProLong Glass Antifade Mountant with NucBlue™ Stain (ThermoFisher; P36981). These cells were imaged using a Zeiss LSM 880 with Airyscan and a plan-apochromatic 63×/1.40 oil objective in Fast Airyscan mode. The same image acquisition settings were used for each trial and condition. Images were then processed with automatic Airyscan deconvolution settings.

T1 sequence (P0A3G2 other isoform, or with tags, fused parts or gaps with the stated changes): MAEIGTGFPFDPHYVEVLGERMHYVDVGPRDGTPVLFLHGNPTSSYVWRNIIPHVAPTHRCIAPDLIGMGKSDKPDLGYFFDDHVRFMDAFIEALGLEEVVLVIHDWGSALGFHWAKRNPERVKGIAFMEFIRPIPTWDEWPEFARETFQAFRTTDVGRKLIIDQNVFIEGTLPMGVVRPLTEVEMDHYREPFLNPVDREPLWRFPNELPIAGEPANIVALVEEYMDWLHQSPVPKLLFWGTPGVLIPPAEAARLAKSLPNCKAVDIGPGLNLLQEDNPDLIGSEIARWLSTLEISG

Row | Structure (SMILES) | KL-Z [1] | logD7.4 ([2]; pH 7.4) | KL-Z [4] | logD7.4 ([2]; octanol-PBS pH 7.4) | other results
1 | O=C1OC2(c3ccc(N4CCC4)cc3Oc3cc(N4CCC4)ccc32)c2ccccc21 [compound 2, Janelia Fluor 549] | 3.5 | 0.98 |  |  | 
2 | CC1(C)C2=CC(=[N+]3CC(C(=O)NCCOCCOCCNC(=O)CCCC[C@@H]4SC[C@@H]5NC(=O)N[C@@H]54)C3)C=CC2=C(c2cc(C(=O)NCCOCCOCCCCCCCl)ccc2C(=O)[O-])c2ccc(N3CCC3)cc21 (some centres unmarked) [compound 13, Biotin-JF608-HaloTag® ligand] |  | 2.63 | 0.17 |  | extinction coefficient (ε) [3]: 92,300 M^−1cm^−1; fluorescence quantum yield (Φf) [3]: 0.65; λabs [3]: 610 nm; λem [3]: 634 nm; time to reach saturation of labeling [5]: 4 h
3 | CC1(C)c2cc(N3CCC3)ccc2C2(OC(=O)c3ccccc32)c2ccc(N3CCC3)cc21 [compound 3, JF608] | 0.091 |  |  | 3.78 | 
4 | C[Si]1(C)c2cc(N3CCC3)ccc2C2(OC(=O)c3ccc(C(=O)NCCOCCOCCCCCCCl)cc32)c2ccc(N3CCC3)cc21 [4HTL, JF646-HaloTag® ligand, reference compound] |  |  | 0.010 | 3.59 | labeling of mitochondria-localized HaloTag®-msGFP fusion [6]: labeled the mitochondria in live cells
5 | C[Si]1(C)c2cc(N3CCC3)ccc2C2(OC(=O)c3ccccc32)c2ccc(N3CCC3)cc21 [compound 4, JF646] | 0.0014 |  |  | 3.98 | 
6 | C[Si]1(C)c2cc(N3CC(F)C3)ccc2C2(OC(=O)c3ccccc32)c2ccc(N3CC(F)C3)cc21 [compound 5, JF635] | 0.0001 |  |  | 4.1 | 
7 | CC1(C)c2cc(N3CCC3)ccc2C2(OC(=O)c3ccc(C(=O)NCCOCCOCCCCCCCl)cc32)c2ccc(N3CCC3)cc21 [3HTL, reference compound] |  |  | 0.33 | 3.55 | 
8 | O=C(NCCOCCOCCCCCCCl)c1ccc2c(c1)C1(OC2=O)c2ccc(N3CCC3)cc2Oc2cc(N3CCC3)ccc21 [2HTL, JF549-HaloTag® ligand, reference compound] |  | 0.82 | 5.2 |  | labeling of mitochondria-localized HaloTag®-msGFP fusion [6]: labeled the mitochondria-localized HaloTag®-msGFP fusions

Reference: patent US20240239818A1, “COMPOUNDS AND COMPOSITIONS COMPRISING FLUOROPHORES FOR USE IN VISUALIZATION AND PURIFICATION OR MANIPULATION” (priority 2022, published 2024)
